Measured values reported in patent publication US11759474B2, “Use of SGLT-2 inhibitors in the drying-off of non-human mammals” (Boehringer Ingelheim Vetmedica GmbH, priority 2020, dated 2023).

Legend:
[1] = Velagliflozin plasma levels after single i.v. dosing in lactating cows; format: in vivo, Holstein-Frisian cows; details: i.v. 0.03, 0.3, 3 mg/kg bodyweight, n=4 lactating cows; FIG. 1
Protocol: (§1) Velagliflozin treatment is tested in n=4 lactating Holstein-Frisian cows. In weekly intervals, velagliflozin is administered intravenously (i.v.) in increasing doses (0.03 mg/kg bodyweight-0.3 mg/kg bodyweight-3 mg/kg bodyweight) in the morning after AM (ante meridian) milking into the right jugular vein in a volume of 2.5 ml of a propylene glycol based solution per 100 kg body weight. Blood samples for determination of velagliflozin plasma levels and urine samples for determination of glucose and creatinine levels are collected one day prior to treatment and ˜8 hours, ˜24 hours and ˜48 hours post treatment and stored frozen until being analysed. Blood glucose and ketone body (beta-hydroxy-butyrate) concentrations are determined immediately after blood collection at the same time points. The total urinary creatinine excreted per day is rather constant in mammals, thus, since urine volume was not determined, the glucose to creatinine ratio was calculated as a surrogate of the total glucose excretion. All animals are milked twice daily, in the morning (ante meridian—AM) and in the late afternoon (post meridian—PM). Throughout the study, milk yield is recorded as kg per animal per milking.

[2] = Blood glucose and ketone body (beta-hydroxy-butyrate) concentrations after treatment in lactating cows; format: in vivo, Holstein-Frisian cows; details: after treatment with all dosages (0.03, 0.3, 3 mg/kg bodyweight i.v.)
Protocol: as §1

[3] = test system: lactating Holstein-Frisian cows; assay: Urinary glucose excretion normalized to urinary creatinine after single i.v. dosing in lactating cows; format: in vivo; details: i.v. 0.03, 0.3, 3 mg/kg bodyweight; urine ~8 h, ~24 h, ~48 h post treatment; FIG. 1
Protocol: as §1

[4] = test system: lactating Holstein-Frisian cows; assay: Milk yield per milking after single i.v. dosing in lactating cows; format: in vivo; details: i.v. 0.03, 0.3, 3 mg/kg bodyweight after AM milking; PM milking about 8 hours after administration; FIG. 2
Protocol: as §1

- Velagliflozin plasma level [1]: linear dose to exposure relationship
- blood glucose level [2]: within normal reference ranges
- ketone body level ([2]; beta-hydroxy-butyrate): within normal reference ranges
SMILES: N#Cc1ccc([C@@H]2O[C@H](CO)[C@@H](O)[C@H](O)[C@H]2O)cc1Cc1ccc(C2CC2)cc1 [velagliflozin, Velagliflozin]
- urinary glucose excretion normalized to urinary creatinine [3]: increases in a dose/exposure dependent manner
- milk yield of the subsequent milking (PM) [4]: decreases in a dose/exposure dependent manner
